In experiment [1] the test system is MM cell lines (NCI-H929, NCI-H929-1051, OPM2, OPM2-P10). The experiment in a line: Cell proliferation assay (CTG, 120 h), four cell lines together. Format: cell-based. Conditions: Homo sapiens, range over four cell lines and both compounds, read-out: antiproliferative IC50 values (range). As to the method: (§1) Cell Culture Materials: Human multiple myeloma cell lines were purchased from the vendors and cultured at 37° C. with 5% CO2 in the media as indicated in Table 1. Lenalidomide and pomalidomide resistant cell lines were obtained by methods as generally described previously (Lopez-Girona et al Leukemia 2012; 26(11): 2335). All cell lines were kept in log phase, and cell density and viability were monitored by trypan blue exclusion using the Vi-cell XR cell viability analyzer (Beckman Coulter, Brea, CA).
Preparation of Solutions of Test Article: Compounds were plated into black 384-well plates (Corning Inc.) to a final DMSO volume of 0.1% assuming a maximal volume of 50 μL. […]
Cell Proliferation Assays: The effect of compounds on the proliferation/viability of the hematological cell lines (Table 1), was assessed after 120 h incubation using CTG (Promega), according to manufacturer's instructions. […] At 120 h, 25 μL per well of CTG was dispensed by a Multidrop Combi Reagent Dispenser and adenosine triphosphate (ATP) release by viable cells was measured as relative luminescence units after 30 minutes using the Envision platform.
Results. […] Proliferation was assessed using the CellTitre-Glo© assay. […] The IC50 for inhibition of cell growth by the compounds was determined for each cell line using ActivityBase software.

Experiment [2] relates to OPM2-P10 (pomalidomide-resistant). The experiment in a line: Cell proliferation assay (CTG, 120 h). The class given is cell-based. Particulars: Homo sapiens, read-out: OPM-2.P10 120 h IC50. As to the method: as §1
(§2) Preparation of Solutions of Test Article: Compounds were plated into black 384-well plates (Corning Inc.) to a final DMSO volume of 0.1% assuming a maximal volume of 50 μL. A 10-point dose response starting at 10 μM with a 1:3 dilution was printed in duplicate by acoustic dispense using the EDC ATS-100 platform. Alternatively, the 10-point dose response starting at 10 μM with a 1:10 dilution, or starting at 100 nM with a 1:3 dilutions were used.
(§3) Cell Proliferation Assays: The effect of compounds on the proliferation/viability of the hematological cell lines (Table 1), was assessed after 120 h incubation using CTG (Promega), according to manufacturer's instructions. Hematological cell lines were dispensed into compound plates by a Multidrop Combi Reagent Dispenser (Thermo Scientific, Waltham, MA) at a concentration of 0.1×10^6 cells per mL in a 50 μL total volume. At 120 h, 25 μL per well of CTG was dispensed by a Multidrop Combi Reagent Dispenser and adenosine triphosphate (ATP) release by viable cells was measured as relative luminescence units after 30 minutes using the Envision platform.
(§4) Results. […] The MM cell lines selected for this study were lines sensitive and resistant to lenalidomide and/or pomalidomide (Table 1), two agents used in the clinic to treat myeloma patients. Proliferation was assessed using the CellTitre-Glo© assay. Results for cultures incubated with the compounds were normalized to results for control cultures for each cell line. The IC50 for inhibition of cell growth by the compounds was determined for each cell line using ActivityBase software.

Experiment [3] relates to OPM2. The experiment in a line: Cell proliferation assay (CTG, 120 h). Conditions: Homo sapiens, OPM-2. Format: cell-based. As to the method: as §1, §2, §3, §4
The subject of experiment [4] is NCI-H929. The experiment can be described thus: Cell proliferation assay (CTG, 120 h). Format: cell-based. Conditions: Homo sapiens. As to the method: as §1, §2, §3, §4
Experiment [5] concerns L363. The experiment can be described thus: Flow cytometry proliferation/apoptosis assay (120 h). Format: cell-based, human. Particulars: for IC50: Homo sapiens, L-363, read-out: Antiproliferative Activity (Flow Cytometry) IC50; for induced apoptosis AUC (area under the dose response curve): scale 0-10000. As to the method: (§5) Methods. […] Using 5 mM stocks, compounds were pre-spotted into the appropriate wells of 96-well plates using a Hewlett-Packard D300 Digital Dispenser. Cells were added to 96-well plates using a Multidrop Combi Reagent Dispenser. After 5 days of treatment, flow cytometric analysis was used to determine the number of cells that were alive, dead, or apoptotic. After 5 days of treatment, cells were incubated with annexin V to stain exposed phosphatidylserine, an apoptotic cell-surface marker, and the vital dye 7-AAD, which is excluded from cells with intact cell membranes, and analyzed by flow cytometry (Attune®, Thermo Fisher). Analysis was then performed to determine the number of live cells (annexin V and 7-AAD double negative staining cells) and the percentage of apoptotic cells (annexin V positive cells) for each condition, relative to the DMSO control treated, was calculated. All described values were normalized to DMSO-only treated cells. All proliferation and apoptosis induction curves were processed and graphed as percent of control using XLFit (IDBS, Alameda, CA) and GraphPad Prism 7.03 (GraphPad Software, La Jolla, CA). The live cell count for every concentration was normalized to the DMSO control (considered as 100%) in Microsoft Excel to generate the proliferation curves. […] Similarly, for apoptosis analysis, the percentage of drug-induced apoptosis was calculated for all doses by combining both “early” (annexin V positive and 7-AAD negative) and “late” apoptosis (annexin V and 7-AAD positive) values and subtracting background values (cell treated with vehicle control DMSO). The AUC values for apoptosis curves were calculated by performing area under curve analysis on GraphPad Prism 7.03. The area under the dose-response curve (AUC) was calculated since it integrates potency and efficacy of the drugs to represent apoptosis into a single parameter. The IC50 values for Compound 2 and pomalidomide in the flow cytometry assays are presented Table 9.
(§6) The apoptosis induction effect of Compound 2 was assessed using flow cytometry after 120 h of treatment and compared with pomalidomide treatment. […] Each data point represents 2 independent experiments with at least two samples in each experiment. (Table 10).
(In general: Flow cytometry measures light scatter and fluorescence of single cells or particles in a stream.)

For experiment [6], the system named is OPM2-P10. Described as above. The class given is cell-based, human. Particulars: for IC50: Homo sapiens, read-out: Antiproliferative Activity (Flow Cytometry) IC50; for induced apoptosis AUC (area under the dose response curve): scale 0-10000. As to the method: as §5, §6
The subject of experiment [7] is KMS-11. The experiment is described as above. The class given is cell-based, human. Conditions: for IC50: Homo sapiens, read-out: Antiproliferative Activity (Flow Cytometry) IC50; for induced apoptosis AUC (area under the dose response curve): scale 0-10000. As to the method:
as §5, §6

Experiment [8] concerns RPMI-8226. The experiment is described as above. Format: cell-based, human. Particulars: for IC50: Homo sapiens, read-out: Antiproliferative Activity (Flow Cytometry) IC50; for induced apoptosis AUC (area under the dose response curve): scale 0-10000. As to the method: as §5, §6
In experiment [9] the test system is CAG. The description is as above. The class given is cell-based, human. Conditions: for IC50: Homo sapiens, read-out: Antiproliferative Activity (Flow Cytometry) IC50; for induced apoptosis AUC (area under the dose response curve): scale 0-10000. As to the method:
as §5, §6

In experiment [10] the test system is SK-MM-2. Described as above. The class given is cell-based, human. Conditions: for IC50: Homo sapiens, SK-MM-2, read-out: Antiproliferative Activity (Flow Cytometry) IC50; for induced apoptosis AUC (area under the dose response curve): SKMM-2, scale 0-10000. As to the method:
as §5, §6

Experiment [11] deals with IM-9. Described as above. The class given is cell-based, human. Particulars: for IC50: Homo sapiens, read-out: Antiproliferative Activity (Flow Cytometry) IC50; for induced apoptosis AUC (area under the dose response curve): scale 0-10000. As to the method: as §5, §6
In experiment [12] the test system is U266. The description is as above. Conditions: for IC50: Homo sapiens, U-266, read-out: Antiproliferative Activity (Flow Cytometry) IC50; for induced apoptosis AUC (area under the dose response curve): scale 0-10000. The class given is cell-based, human. As to the method:
as §5, §6

Experiment [13] relates to NCI-H929-1051. The description is as above. Format: cell-based, human. Particulars: for induced apoptosis AUC (area under the dose response curve): H929-1051, scale 0-10000; for IC50: Homo sapiens, NCI-H929-1051, read-out: Antiproliferative Activity (Flow Cytometry) IC50. As to the method: as §5, §6
Experiment [14] deals with ARH-77. The experiment is described as above. The class given is cell-based, human. Particulars: for IC50: Homo sapiens, read-out: Antiproliferative Activity (Flow Cytometry) IC50; for induced apoptosis AUC (area under the dose response curve): scale 0-10000. As to the method:
as §5, §6

Experiment [15] relates to KMS34. The description is as above. Format: cell-based, human. Conditions: for IC50: Homo sapiens, KMS-34, KMS34, read-out: Antiproliferative Activity (Flow Cytometry) IC50; for induced apoptosis AUC (area under the dose response curve): KMS-34, scale 0-10000. As to the method:
as §5, §6

In experiment [16] the test system is EJM. The description is as above. The class given is cell-based, human. Conditions: for IC50: Homo sapiens, read-out: Antiproliferative Activity (Flow Cytometry) IC50; for induced apoptosis AUC (area under the dose response curve): scale 0-10000. As to the method:
as §5, §6

SMILES strings stand for the structures.

Usually IC50 stands for the point on the concentration scale where inhibition reaches its midpoint. For the compound `N#Cc1ccc(N2CCN(Cc3ccc(COc4cccc5c4CN(C4CCC(=O)NC4=O)C5=O)cc3)CC2)c(F)c1` (racemic) [Compound 1, 4-(4-(4-(((2-(2,6-dioxopiperidin-3-yl)-1-oxoisoindolin-4-yl)oxy)methyl)benzyl)piperazin-1-yl)-3-fluorobenzonitrile], the IC50 in [1] is 0.07 to 19 nM; in [2], 19 nM; in [3], under 0.5 nM; in experiment [4], under 0.5 nM.

Take `N#Cc1ccc(N2CCN(Cc3ccc(COc4cccc5c4CN([C@H]4CCC(=O)NC4=O)C5=O)cc3)CC2)c(F)c1` [Compound 2, (S)-4-(4-(4-(((2-(2,6-dioxopiperidin-3-yl)-1-oxoisoindolin-4-yl)oxy)methyl)benzyl)piperazin-1-yl)-3-fluorobenzonitrile]: the IC50 in experiment [5] came to 0.16 nM; in experiment [6] it was 1.81 nM; in [7], 1.41 nM; in [8] it was 0.75 nM; in experiment [9], 0.12 nM; in experiment [10], 0.82 nM. In addition, the IC50 was 5570 nM in experiment [11]; 0.19 nM in [12]; 0.45 nM in experiment [13]; over 10000 nM in experiment [14]; 0.45 nM in experiment [15]; 0.43 nM in experiment [16]. Also, the IC50 is 0.07 to 19 nM in experiment [1], 4.3 nM in [2], 0.07 nM in experiment [3] and 0.07 nM in experiment [4]. Besides, the “induced apoptosis AUC (area under the dose response curve)” value (from here on “induced apoptosis AUC”) is listed as 347 in [5]; 1768 in experiment [6]; 1270 in [7]; 3245 in experiment [8]; 5804 in experiment [9]; 3204 in [10]. The “induced apoptosis AUC” value in experiment [11] stood at 323.9; in experiment [12] it was 927.8; in experiment [13] it was 3968; in [14], 709; in [15] it was 1614; in [16], 2591.

In the case of `Nc1cccc2c1C(=O)N(C1CCC(=O)NC1=O)C2=O` (centres unmarked) [Pomalidomide, pomalidomide], the IC50 in experiment [5] was over 10000 nM; in [6], over 10000 nM; in experiment [7], 5290 nM; in [8], over 10000 nM; in experiment [9], 1080 nM; in [10], over 10000 nM. For the same compound, the IC50 was over 10000 nM in experiment [11]; 381 nM in experiment [12]; 1950 nM in experiment [13]; over 10000 nM in experiment [14]; over 10000 nM in experiment [15]; 2840 nM in [16]. Also, the “induced apoptosis AUC” value in experiment [5] was determined as 293; in [6] it was 108.7; in experiment [7], 234.4; in experiment [8], 1369; in [9], 1561; in [10] it was 1033. In addition, the “induced apoptosis AUC” value in [11] was 25.4; in [12], 373; in experiment [13], 423; in [14], 28.16; in experiment [15], 429.7; in experiment [16], 900.

The record behind these values is patent publication US12029738B2, “Antiproliferative compounds and methods of use thereof” (Celgene Corporation, priority 2017, dated 2024).
